Tests used:
human PDE9A = human PDE9A (Homo sapiens, UniProt O76083); settings: concentrations of up to 100 micromolar (μM); cited from earlier work
Murine PDE9A = target: T1, Murine PDE9A (Mus musculus, UniProt O70628); settings: concentrations below 200 micromolar; cited from earlier work
T1 sequence (O70628 1-534): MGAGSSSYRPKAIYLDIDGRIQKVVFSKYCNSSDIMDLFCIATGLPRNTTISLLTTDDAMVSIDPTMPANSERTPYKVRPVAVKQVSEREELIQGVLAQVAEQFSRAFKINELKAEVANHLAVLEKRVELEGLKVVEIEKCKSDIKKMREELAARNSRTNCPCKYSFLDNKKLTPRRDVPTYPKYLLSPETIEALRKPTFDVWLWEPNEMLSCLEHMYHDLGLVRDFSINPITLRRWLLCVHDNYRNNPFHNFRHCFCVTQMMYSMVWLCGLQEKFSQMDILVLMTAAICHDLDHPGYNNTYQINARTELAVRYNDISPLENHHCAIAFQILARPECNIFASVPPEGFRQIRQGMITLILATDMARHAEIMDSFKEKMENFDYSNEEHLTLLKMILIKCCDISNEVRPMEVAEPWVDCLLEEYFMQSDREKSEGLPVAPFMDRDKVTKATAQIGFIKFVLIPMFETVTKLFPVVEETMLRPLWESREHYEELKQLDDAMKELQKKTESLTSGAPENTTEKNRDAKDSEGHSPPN

human PDE9A2 = target: T2, human PDE9A2 (Homo sapiens, UniProt O76083); assay: PDE9A2 enzymatic activity assay (scintillation proximity assay); assay type: biochemical; settings: for inhibition at 10 µM: read-out: % Inhibition of PDE 9A2; for IC50: specific IC50 value is within the given range
T2 construct: made in house; host or cells: Sf9 insect cells (infected; crude lysate used as enzyme source)
T2 sequence (O76083 1-533 isoform O76083-2): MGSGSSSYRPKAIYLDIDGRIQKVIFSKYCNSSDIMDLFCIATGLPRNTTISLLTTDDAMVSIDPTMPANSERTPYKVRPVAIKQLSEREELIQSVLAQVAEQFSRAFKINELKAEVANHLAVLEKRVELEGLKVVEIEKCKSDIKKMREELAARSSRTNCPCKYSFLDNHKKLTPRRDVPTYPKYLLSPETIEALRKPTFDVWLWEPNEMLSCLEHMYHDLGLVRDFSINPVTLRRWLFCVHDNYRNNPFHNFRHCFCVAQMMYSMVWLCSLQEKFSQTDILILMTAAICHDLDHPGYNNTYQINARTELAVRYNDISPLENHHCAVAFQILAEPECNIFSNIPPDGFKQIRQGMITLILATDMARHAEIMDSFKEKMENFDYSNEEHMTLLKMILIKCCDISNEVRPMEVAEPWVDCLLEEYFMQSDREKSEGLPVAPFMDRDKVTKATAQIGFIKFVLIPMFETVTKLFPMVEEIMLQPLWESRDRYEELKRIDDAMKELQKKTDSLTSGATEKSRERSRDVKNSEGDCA
Description: The PDE9A2 enzymatic activity assay was run as scintillation proximity assay (SPA), in general according to the protocol of the manufacturer (Amersham Biosciences, product number: TRKQ 7100).
As enzyme source, lysate (PBS with 1% Triton X-100 supplemented with protease inhibitors, cell debris removed by centrifugation at 13.000 rpm for 30 min) of SF 9 cell expressing the human PDE9A2 was used. The total protein amount included in the assay varied upon infection and production efficacy of the SF9 cells and lay in the range of 0.1-100 ng.
In general, the assay conditions were as follows: • total assay volume: 40 microliter • protein amount: 0.1-50 ng • substrate concentration (cGMP): 20 nanomolar; ˜1 mCi/1 • incubation time: 60 min at room temperature • final DMSO concentration: 0.2-1
The assays were run in 384-well format. The test reagents as well as the enzyme and the substrate were diluted in assay buffer. The assay buffer contained 50 mM Tris, 8.3 mM MgCl2, 1.7 mM EGTA, 0.1% BSA, 0.05% Tween 20; the pH of assay buffer was adjusted to 7.5. The reaction was stopped by applying a PDE9 specific inhibitor (e.g. compounds according to WO04099210 or WO04099211) in excess.
The activity of the positive control (minus the negative control=background) is set to 100% and activity in the presence of test compound is expressed relative to these 100%. Within this setting, an inhibition above 100% might be possible due to the nature of the variation of the positive control within the assay. In the following inhibition of PDE 9A2 is presented for a concentration at 10 μM, if not indicated otherwise.
IC50 can be calculated with GraphPadPrism or other suited software setting the positive control as 100 and the negative control as 0. For calculation of IC50 dilutions of the test compounds (substrates) are to be selected and tested following the aforementioned protocol.

human PDE9A, sequence (O76083 whole entry): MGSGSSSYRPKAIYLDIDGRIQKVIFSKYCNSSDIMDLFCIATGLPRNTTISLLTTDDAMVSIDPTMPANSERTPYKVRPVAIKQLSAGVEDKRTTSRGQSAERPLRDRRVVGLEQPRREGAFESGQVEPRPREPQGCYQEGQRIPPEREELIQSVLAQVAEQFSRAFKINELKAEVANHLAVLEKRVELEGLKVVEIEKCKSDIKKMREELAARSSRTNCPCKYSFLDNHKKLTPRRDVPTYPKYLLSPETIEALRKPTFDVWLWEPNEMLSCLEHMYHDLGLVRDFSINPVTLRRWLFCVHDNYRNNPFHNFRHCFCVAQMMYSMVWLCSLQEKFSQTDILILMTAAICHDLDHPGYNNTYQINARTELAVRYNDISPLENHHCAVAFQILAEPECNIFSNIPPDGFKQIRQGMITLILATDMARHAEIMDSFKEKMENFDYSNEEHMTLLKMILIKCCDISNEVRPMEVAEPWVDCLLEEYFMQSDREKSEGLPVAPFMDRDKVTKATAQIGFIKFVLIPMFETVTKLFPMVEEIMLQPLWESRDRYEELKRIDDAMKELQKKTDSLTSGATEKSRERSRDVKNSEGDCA

Row | Compound | inhibition on the isolated enzyme (human PDE9A) | inhibition of murine PDE9A (Murine PDE9A) | inhibition at 10 µM (human PDE9A2) [%] | IC50 (human PDE9A2) [nM]
1 | CC(=O)Nc1ccc(-c2c[nH]c(=O)cn2)cc1 [SKF94120] | no inhibition |  |  | 
2 | OCCN(CCO)c1nc(N2CCCCC2)c2nc(N(CCO)CCO)nc(N3CCCCC3)c2n1 [dipyridamole] | no inhibition |  |  | 
3 | CC(C)Cn1c(=O)n(C)c(=O)c2[nH]cnc21 [IBMX] | no inhibition | not inhibited |  | 
4 | CCOC(=O)C1=C[C@]2(CC)CCCN3CCc4c(n1c1ccccc41)[C@@H]32 [vinpocetine] | no inhibition |  |  | 
5 | COc1ccc(C2CNC(=O)C2)cc1OC1CCCC1 (stereo not drawn) [rolipram] | no inhibition |  |  | 
6 | O=c1[nH]c(Cc2cc(F)cc(F)c2)nc2c1cnn2C1CCC(F)(F)CC1 [Example 7] |  |  | 96 | 1 to 100
7 | O=c1[nH]c(Cc2ncccc2Br)nc2c1cnn2C1CCC(F)(F)CC1 [Example 46] |  |  | 98 | 1 to 100
8 | O=c1[nH]c(CC2CC2)nc2c1cnn2C1CCCC(c2ccccc2)C1 (mixture of isomers) [Example 15] |  |  | 93 | 101 to 1500
9 | COC1CCCCC1n1ncc2c(=O)[nH]c(Cc3ccccn3)nc21 (racemic) [Example 12] |  |  | 83 | 101 to 1500
10 | CN1CCN(C(=O)Cc2ccccc2Cc2nc3c(cnn3C3CCC(F)(F)CC3)c(=O)[nH]2)CC1 [Example 80] |  |  | 91 | 101 to 1500
11 | O=C(O)Cc1ccccc1Cc1nc2c(cnn2C2CCC(F)(F)CC2)c(=O)[nH]1 [Example 38] |  |  | 85 | 101 to 1500
12 | COc1cncc(-c2cc(F)ccc2Cc2nc3c(cnn3C3CCC(F)(F)CC3)c(=O)[nH]2)c1 [Example 67] |  |  | 99 | 1 to 100
13 | O=c1[nH]c(Cc2ccccc2-c2ccc(N3CCOCC3)nc2)nc2c1cnn2C1CCC(F)(F)CC1 [Example 75] |  |  | 101 | 1 to 100
14 | CC(Cc1nc2c(cnn2C2CCC(F)(F)CC2)c(=O)[nH]1)C(F)(F)F (racemic) [Example 30] |  |  | 98 | 1 to 100
15 | CC(C)(C)OC(=O)NC1CCCC(n2ncc3c(=O)[nH]c(Cc4ccccc4OC(F)(F)F)nc32)C1 (mixture of isomers) [Example 18] |  |  | 100 | 1 to 100
16 | CN(C)C(=O)Cc1ccccc1Cc1nc2c(cnn2C2CCC(F)(F)CC2)c(=O)[nH]1 [Example 79] |  |  | 95 | 101 to 1500
17 | O=c1[nH]c(Cc2ncccc2-n2cccn2)nc2c1cnn2C1CCC(F)(F)CC1 [Example 96] |  |  | 93 | 1 to 100
18 | COc1ncccc1-c1ccc(F)cc1Cc1nc2c(cnn2C2CCC(F)(F)CC2)c(=O)[nH]1 [Example 72-8] |  |  | 98 | 1 to 100
19 | COc1cncc(-c2ccccc2Cc2nc3c(cnn3C3CCC(F)(F)CC3)c(=O)[nH]2)c1 [Example 53] |  |  | 100 | 1 to 100
20 | O=c1[nH]c(C(F)c2ccccc2Br)nc2c1cnn2C1CCC(F)(F)CC1 (racemic) [Example 48-2] |  |  | 92 | 101 to 1500
21 | O=c1[nH]c(Cc2ccccn2)nc2c1cnn2C1CCC(F)CC1 (stereo not drawn) [Example 109] |  |  | 93 | 
22 | O=c1[nH]c(Cc2cc(F)ccc2Br)nc2c1cnn2C1CCC(F)(F)CC1 [Example 45] |  |  | 97 | 1 to 100
23 | O=c1[nH]c(Cc2ccccc2-n2cnnc2)nc2c1cnn2C1CCC(F)(F)CC1 [Example 108] |  |  | 99 | 1 to 100
24 | CC(Cc1nc2c(cnn2C2CCC(F)(F)CC2)c(=O)[nH]1)C(F)(F)F (single isomer, unassigned) [Example 47] |  |  | 98 | 1 to 100
25 | CC(=O)NC1CCCC(n2ncc3c(=O)[nH]c(CC4CCCC4)nc32)C1 (racemic) [Example 50] |  |  | 95 | 101 to 1500
26 | COc1cccnc1Cc1nc2c(cnn2C2CCC(F)(F)CC2)c(=O)[nH]1 [Example 100] |  |  | 95 | 101 to 1500
27 | CC(C)Cc1nc2c(cnn2C2CCC(F)(F)CC2)c(=O)[nH]1 [Example 9] |  |  | 97 | 1 to 100
28 | O=c1[nH]c(Cc2ccc(F)cc2Br)nc2c1cnn2C1CCC(F)(F)CC1 [Example 44] |  |  | 92 | 101 to 1500
